Results as given in patent US5866087A, “Calixarene derivatives, their preparation process and their use for extracting actinides and lanthanides” (priority 1995, dated 1999).

Assays:
[1] = supported liquid membrane transport into aqueous reextraction solution; type: physicochemical; conditions: for Percentage transported in 6 h. 237 Np / Percentage transported in 6 h. 239 Pu / Percentage transported in 6 h. 241 Am / Percentage of 239Pu transported in 24 h / Percentage transported in 24 h. 237 Np / Percentage transported in 24 h. 241 Am: supported liquid membrane, 0.001 or 0.0001M calixarene (CMPO 10^-2 M); for Permeability (cm/h) 237 Np / Permeability (cm/h) 239 Pu / Permeability (cm/h) 241 Am: CELGARD 2500 membrane, nitrophenylhexyl ether with 0.001 or 0.0001M calixarene (CMPO 10^-2 M), reextraction 1 mole/l methylene diphosphonic acid
From the text: These examples use the second embodiment of the process according to the invention for extracting europium, neptunium, plutonium and americium from aqueous solutions having the same compositions as those used in examples 7 to 16. These examples use the device shown in the attached drawing.
This device comprises an enclosure 1 subdivided into two compartents 3 and 5 by a supported liquid membrane 7, constituted by a microporous polypropylene membrane marketed under the name CELGARD 2500 and having the following characteristics:
membrane thickness: 0.025 mm.
The pores of this membrane are filled with an organic phase constituted by nitrophenylhexyl ether incorporating 0.001 or 0.0001M of calixarene.
Compartment 3 contains 50 ml of aqueous solution (NaNO3 :4 mole/l, HNO3 : 1mole/l with Eu, Np, Pu, Am); and compartment 5 contains 50ml of an aqueous reextraction solution constituted by an aqueous solution with 1 mole/l of methylene diphosphonic acid.
The two solutions are stirred and the initial activity of the solution of compartment 3 is determined, followed by the activity of the aqueous reextraction solution of compartment 5 by liquid α spectrometry and the operation is continued for one day. From it is deduced the percentage of neptunium, plutonium, americium and europium recovered in the aqueous reextraction solution after 6 and 24 h.
The calixarenes used, the permeability (in cm h^-1) of the membrane to Np and Pu, as well as the %, at the end of 6 and 24 h,of Eu, Am, Np and Pu recovered are given in table 3.

[2] = liquid-liquid extraction from aqueous nitric solution, distribution coefficient D; type: physicochemical; conditions: calixarene 0.001M in nitrophenyloctylether, aqueous HNO3, NaNO3 4 mole/l; for D(distribution coefficient) 152-Eu: pH ≈0, 1 hour contacting; for D(distribution coefficient) 237-Np / D(distribution coefficient) 239-Pu / D(distribution coefficient) 241-Am: 1 hour, * = precipitation
Description: In these examples, an evaluation takes place of the effectiveness of the calixarenes of table 1 for extracting plutonium, neptunium and americium, as well as europium (simulating all the trivalent lanthanides) of an aqueous solution containing one of these elements. The composition of the aqueous solution is as follows:
[…] Contacting takes place in a 20 ml polypropylene tube, which undergoes stirring. After 1 hour of contacting, the two phases are allowed to settle and the activity of each phase is counted by liquid scintillation or α and γ spectrometries.
The distribution coefficient D is then determined and this corresponds to the ratio of the activity of actinide in the organic phase to the activity of actinide in the aqueous phase.

CCCCCOc1c2cc(NC(=O)CP(=O)(c3ccccc3)c3ccccc3)cc1Cc1cc(NC(=O)CP(=O)(c3ccccc3)c3ccccc3)cc(c1OCCCCC)Cc1cc(NC(=O)CP(=O)(c3ccccc3)c3ccccc3)cc(c1OCCCCC)Cc1cc(NC(=O)CP(=O)(c3ccccc3)c3ccccc3)cc(c1OCCCCC)C2 [Compound 8]
Percentage transported in 6 h. 237 Np [1]: 8.5%
Percentage transported in 6 h. 239 Pu [1]: 79.6%
Percentage transported in 6 h. 241 Am [1]: 99%
Percentage of 239Pu transported in 24 h [1]: 80%
Percentage transported in 24 h. 237 Np [1]: 14.5%
Percentage transported in 24 h. 241 Am [1]: 100%
Permeability (cm/h) 237 Np [1]: < 0.2 cm/h
Permeability (cm/h) 239 Pu [1]: 3.6 cm/h
Permeability (cm/h) 241 Am [1]: 3.4 cm/h
D(distribution coefficient) 152-Eu [2]: > 100
D(distribution coefficient) 237-Np [2]: 2
D(distribution coefficient) 239-Pu [2]: 100
D(distribution coefficient) 241-Am [2]: 250

CCCCCCCCOc1c2cc(NC(=O)CP(=O)(c3ccccc3)c3ccccc3)cc1Cc1cc(NC(=O)CP(=O)(c3ccccc3)c3ccccc3)cc(c1OC)Cc1cc(NC(=O)CP(=O)(c3ccccc3)c3ccccc3)cc(c1OCCCCCCCC)Cc1cc(NC(=O)CP(=O)(c3ccccc3)c3ccccc3)cc(c1OC)C2 [Compound 9]
Percentage transported in 6 h. 237 Np [1]: 52.4%
Percentage transported in 6 h. 239 Pu [1]: 84.1%
Percentage transported in 6 h. 241 Am [1]: 91.3%
Percentage of 239Pu transported in 24 h [1]: 86%
Percentage transported in 24 h. 237 Np [1]: 75.2%
Percentage transported in 24 h. 241 Am [1]: 100%
Permeability (cm/h) 237 Np [1]: 1.6 cm/h
Permeability (cm/h) 239 Pu [1]: 4.2 cm/h
Permeability (cm/h) 241 Am [1]: 2.9 cm/h
D(distribution coefficient) 152-Eu [2]: > 100
D(distribution coefficient) 237-Np [2]: 2
D(distribution coefficient) 239-Pu [2]: 110
D(distribution coefficient) 241-Am [2]: 280
